Test results: ChEMBL document CHEMBL1201862, “PubChem BioAssay data set” (2004)
Active and inactive are the calls of the source.

Tests used:
CAAX prenyl protease 2 = target: T1, CAAX prenyl protease 2 (Saccharomyces cerevisiae S288c, UniProt Q03530); format: biochemical
T1 sequence (Q03530 whole entry): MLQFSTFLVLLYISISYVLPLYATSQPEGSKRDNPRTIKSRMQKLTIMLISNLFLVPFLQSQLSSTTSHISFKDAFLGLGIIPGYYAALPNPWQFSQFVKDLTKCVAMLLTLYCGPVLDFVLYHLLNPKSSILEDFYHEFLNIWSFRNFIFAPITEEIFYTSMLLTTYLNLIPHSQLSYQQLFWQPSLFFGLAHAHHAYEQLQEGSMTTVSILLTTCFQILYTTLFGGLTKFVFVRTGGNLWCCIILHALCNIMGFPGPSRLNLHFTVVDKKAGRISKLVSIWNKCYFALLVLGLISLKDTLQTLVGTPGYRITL

Trypsin = Trypsin (Sus scrofa, UniProt P00761); assay: porcine trypsin inhibitors, dose response, selectivity assay for Rce1 protease inhibitor project, biochemical, quenched peptide fluorescence, cherry-pick (AID 488789)
Sequence of Trypsin (P00761 whole entry): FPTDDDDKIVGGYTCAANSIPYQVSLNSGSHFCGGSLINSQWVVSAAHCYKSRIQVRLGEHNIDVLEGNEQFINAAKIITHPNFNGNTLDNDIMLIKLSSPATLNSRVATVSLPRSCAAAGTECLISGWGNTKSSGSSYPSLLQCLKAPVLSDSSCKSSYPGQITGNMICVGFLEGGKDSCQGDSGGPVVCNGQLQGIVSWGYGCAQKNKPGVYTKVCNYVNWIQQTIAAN

Cytochrome P450 2D6 = Cytochrome P450 2D6 (Homo sapiens, UniProt P10635);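 note: CYP2D6 member of a cytochrome P450 panel assay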
Sequence of Cytochrome P450 2D6 (P10635 whole entry): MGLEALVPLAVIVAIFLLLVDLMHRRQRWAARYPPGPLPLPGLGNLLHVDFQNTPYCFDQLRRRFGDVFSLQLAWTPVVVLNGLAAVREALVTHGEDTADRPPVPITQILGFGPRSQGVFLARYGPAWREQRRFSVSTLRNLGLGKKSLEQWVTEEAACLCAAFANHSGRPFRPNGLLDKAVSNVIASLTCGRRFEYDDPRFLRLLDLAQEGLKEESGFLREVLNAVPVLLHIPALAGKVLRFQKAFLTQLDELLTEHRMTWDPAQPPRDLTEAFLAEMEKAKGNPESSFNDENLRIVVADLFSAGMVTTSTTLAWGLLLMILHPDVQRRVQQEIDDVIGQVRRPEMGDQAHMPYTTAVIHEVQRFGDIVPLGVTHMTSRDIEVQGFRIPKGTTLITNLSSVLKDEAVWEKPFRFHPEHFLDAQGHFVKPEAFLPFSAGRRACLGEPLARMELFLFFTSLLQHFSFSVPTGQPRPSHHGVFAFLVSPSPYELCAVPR

Cytochrome P450 2C9 = Cytochrome P450 2C9 (Homo sapiens, UniProt P11712)
Sequence of Cytochrome P450 2C9 (P11712 whole entry): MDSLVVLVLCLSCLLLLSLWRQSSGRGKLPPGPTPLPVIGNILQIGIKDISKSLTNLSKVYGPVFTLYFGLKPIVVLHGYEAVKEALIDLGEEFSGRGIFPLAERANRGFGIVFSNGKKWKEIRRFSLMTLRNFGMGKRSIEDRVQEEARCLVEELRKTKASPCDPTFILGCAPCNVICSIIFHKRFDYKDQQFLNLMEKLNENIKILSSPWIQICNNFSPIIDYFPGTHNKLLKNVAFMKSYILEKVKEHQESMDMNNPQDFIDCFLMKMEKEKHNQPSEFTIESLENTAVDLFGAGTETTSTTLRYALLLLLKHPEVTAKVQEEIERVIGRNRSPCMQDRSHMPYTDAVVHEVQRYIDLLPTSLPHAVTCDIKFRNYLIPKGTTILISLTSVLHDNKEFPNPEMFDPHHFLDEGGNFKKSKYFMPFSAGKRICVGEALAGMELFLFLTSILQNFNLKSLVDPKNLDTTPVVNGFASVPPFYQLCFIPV

[1] = target: T2, Alkaline phosphatase, tissue-nonspecific isozyme (Homo sapiens, UniProt P05186); assay: human TNAP enzyme inhibitors, SAR follow-up, biochemical, luminescent, dose response (AID 1056)
T2 sequence (P05186 whole entry): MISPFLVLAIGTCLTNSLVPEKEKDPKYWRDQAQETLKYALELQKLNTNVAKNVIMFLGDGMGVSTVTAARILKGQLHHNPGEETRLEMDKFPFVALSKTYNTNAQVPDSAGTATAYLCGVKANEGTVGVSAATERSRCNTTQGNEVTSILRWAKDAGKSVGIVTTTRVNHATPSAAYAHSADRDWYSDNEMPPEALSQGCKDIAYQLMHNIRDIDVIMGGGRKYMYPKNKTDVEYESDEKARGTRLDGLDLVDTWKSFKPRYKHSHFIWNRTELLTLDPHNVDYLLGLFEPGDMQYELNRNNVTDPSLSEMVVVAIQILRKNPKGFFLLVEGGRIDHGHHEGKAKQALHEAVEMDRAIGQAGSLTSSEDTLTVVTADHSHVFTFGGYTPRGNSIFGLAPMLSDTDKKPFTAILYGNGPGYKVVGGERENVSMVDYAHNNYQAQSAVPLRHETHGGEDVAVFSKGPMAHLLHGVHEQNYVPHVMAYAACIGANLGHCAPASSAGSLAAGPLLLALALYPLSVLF

Protein skinhead-1 = target: T3, Protein skinhead-1 (Caenorhabditis elegans, UniProt P34707); format: functional
T3 sequence (P34707 whole entry): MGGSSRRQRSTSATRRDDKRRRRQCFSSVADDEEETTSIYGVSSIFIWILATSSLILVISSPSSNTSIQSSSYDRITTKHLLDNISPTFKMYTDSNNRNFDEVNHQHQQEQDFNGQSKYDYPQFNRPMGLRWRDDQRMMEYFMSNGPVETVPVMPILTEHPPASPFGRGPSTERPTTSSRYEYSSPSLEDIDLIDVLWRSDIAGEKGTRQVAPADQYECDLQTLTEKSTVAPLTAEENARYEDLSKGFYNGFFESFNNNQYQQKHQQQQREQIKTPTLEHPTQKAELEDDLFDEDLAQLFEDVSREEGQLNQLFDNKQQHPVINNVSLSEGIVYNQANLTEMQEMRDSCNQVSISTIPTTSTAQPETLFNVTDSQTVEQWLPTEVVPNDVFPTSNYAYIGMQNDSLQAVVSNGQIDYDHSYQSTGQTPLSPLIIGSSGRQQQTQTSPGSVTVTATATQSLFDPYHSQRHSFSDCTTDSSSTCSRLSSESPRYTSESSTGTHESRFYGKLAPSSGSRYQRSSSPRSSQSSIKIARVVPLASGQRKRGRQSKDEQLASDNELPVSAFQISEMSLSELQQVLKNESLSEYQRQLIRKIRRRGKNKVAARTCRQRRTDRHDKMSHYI

[2] = target: Glyceraldehyde-3-phosphate dehydrogenase (Homo sapiens, UniProt P04406)
Sequence of Glyceraldehyde-3-phosphate dehydrogenase (P04406 whole entry): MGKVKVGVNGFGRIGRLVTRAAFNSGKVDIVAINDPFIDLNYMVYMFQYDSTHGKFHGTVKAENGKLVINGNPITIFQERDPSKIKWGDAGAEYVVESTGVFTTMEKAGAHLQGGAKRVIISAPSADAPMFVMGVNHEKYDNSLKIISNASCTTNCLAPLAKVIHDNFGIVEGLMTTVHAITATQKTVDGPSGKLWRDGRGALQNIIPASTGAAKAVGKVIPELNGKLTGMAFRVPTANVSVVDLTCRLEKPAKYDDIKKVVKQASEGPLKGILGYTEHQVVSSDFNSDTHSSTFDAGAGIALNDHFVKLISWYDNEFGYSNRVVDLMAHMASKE

HeLa = assay: HeLa cell cytotoxicity, dose response, cytotoxicity control, 24 h, cherry-picked samples (AID 504726); format: functional, cell-based; settings: Homo sapiens;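 note: potency for cytotoxicity as loss of luminescence signal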
X-box-binding protein 1 = target: T4, X-box-binding protein 1 (Homo sapiens, UniProt P17861); format: functional, Cricetulus griseus;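 note: confirmatory dose-response counter-screen serving a CHOP assay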
T4 sequence (P17861 whole entry): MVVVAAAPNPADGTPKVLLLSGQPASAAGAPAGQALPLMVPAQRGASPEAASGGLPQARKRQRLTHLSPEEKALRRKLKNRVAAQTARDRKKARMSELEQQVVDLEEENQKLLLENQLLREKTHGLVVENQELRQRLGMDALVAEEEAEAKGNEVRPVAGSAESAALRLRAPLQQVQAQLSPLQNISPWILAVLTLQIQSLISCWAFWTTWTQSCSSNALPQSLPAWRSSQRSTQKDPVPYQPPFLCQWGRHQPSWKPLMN

Bcl-2-like protein 10 = target: T5, Bcl-2-like protein 10 (Homo sapiens, UniProt Q9HD36); assay: displacers of TR3 peptide from Bcl-B, primary screen, selectivity assay for Bfl-1 inhibitor project, biochemical, fluorescence polarization, FITC-TR3 peptide (AID 748);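 note: fluorescence polarization from a fluorescein-labelled TR3 peptide binding purified Bcl-B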
T5 sequence (Q9HD36 whole entry): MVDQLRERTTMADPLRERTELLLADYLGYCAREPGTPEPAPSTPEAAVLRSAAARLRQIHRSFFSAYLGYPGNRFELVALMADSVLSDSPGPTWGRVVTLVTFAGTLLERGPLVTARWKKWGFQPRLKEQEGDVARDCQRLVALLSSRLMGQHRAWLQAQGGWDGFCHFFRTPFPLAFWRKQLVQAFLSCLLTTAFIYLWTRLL

[3] = target: G-protein coupled receptor 55 (Homo sapiens, UniProt Q9Y2T6); assay: GPR55 antagonists blocking LPI-driven arrestin recruitment, primary screen, imaging, U2OS, beta-arrestin-GFP, LPI agonist (AID 2013); format: functional;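 note: antagonist potency measured as reduced agonist-driven arrestin aggregation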
Sequence of G-protein coupled receptor 55 (Q9Y2T6 whole entry): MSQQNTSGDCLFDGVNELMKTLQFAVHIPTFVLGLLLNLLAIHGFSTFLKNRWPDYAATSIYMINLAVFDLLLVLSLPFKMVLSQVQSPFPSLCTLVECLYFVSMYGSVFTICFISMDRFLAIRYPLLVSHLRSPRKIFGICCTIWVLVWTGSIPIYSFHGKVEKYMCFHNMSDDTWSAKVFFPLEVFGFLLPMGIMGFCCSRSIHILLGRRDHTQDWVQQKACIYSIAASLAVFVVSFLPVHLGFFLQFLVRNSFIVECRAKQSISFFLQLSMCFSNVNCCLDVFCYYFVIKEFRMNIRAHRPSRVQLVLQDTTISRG

Troponin, cardiac muscle = Troponin, cardiac muscle (Homo sapiens, UniProt P19429+P45379+P63316); assay: Fluorescence-based biochemical high throughput dose response assay for activators of the calcium sensitivity of cardiac Regulated Thin Filaments (RTF). [Related pubchem assays (depositor defined):AID493008, AID493018, AID504382, AID504383]; format: protein-complex assay
Cytochrome P450 3A4 = Cytochrome P450 3A4 (Homo sapiens, UniProt P08684);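 note: CYP3A4 tested as one member of a cytochrome P450 panel screen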
Sequence of Cytochrome P450 3A4 (P08684 whole entry): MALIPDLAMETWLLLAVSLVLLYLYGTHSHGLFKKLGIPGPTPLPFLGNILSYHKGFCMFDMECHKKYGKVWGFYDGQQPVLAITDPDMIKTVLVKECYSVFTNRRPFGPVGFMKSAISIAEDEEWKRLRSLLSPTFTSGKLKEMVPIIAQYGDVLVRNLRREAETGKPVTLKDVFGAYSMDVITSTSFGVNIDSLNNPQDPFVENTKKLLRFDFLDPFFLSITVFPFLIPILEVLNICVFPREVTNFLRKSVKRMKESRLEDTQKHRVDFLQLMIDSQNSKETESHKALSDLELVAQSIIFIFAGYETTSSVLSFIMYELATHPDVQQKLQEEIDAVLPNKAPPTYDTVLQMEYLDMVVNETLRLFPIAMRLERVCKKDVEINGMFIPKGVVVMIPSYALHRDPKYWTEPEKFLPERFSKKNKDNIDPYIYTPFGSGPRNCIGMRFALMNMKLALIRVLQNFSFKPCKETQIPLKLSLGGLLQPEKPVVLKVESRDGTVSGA

[4] = target: T6, Lysosomal acid glucosylceramidase (Homo sapiens, UniProt P04062); assay: Dose response cell-based high throughput screening assay to identify enhancers of beta-glucosidase activity. [Related pubchem assays: 784 ]; format: functional
T6 sequence (P04062 whole entry): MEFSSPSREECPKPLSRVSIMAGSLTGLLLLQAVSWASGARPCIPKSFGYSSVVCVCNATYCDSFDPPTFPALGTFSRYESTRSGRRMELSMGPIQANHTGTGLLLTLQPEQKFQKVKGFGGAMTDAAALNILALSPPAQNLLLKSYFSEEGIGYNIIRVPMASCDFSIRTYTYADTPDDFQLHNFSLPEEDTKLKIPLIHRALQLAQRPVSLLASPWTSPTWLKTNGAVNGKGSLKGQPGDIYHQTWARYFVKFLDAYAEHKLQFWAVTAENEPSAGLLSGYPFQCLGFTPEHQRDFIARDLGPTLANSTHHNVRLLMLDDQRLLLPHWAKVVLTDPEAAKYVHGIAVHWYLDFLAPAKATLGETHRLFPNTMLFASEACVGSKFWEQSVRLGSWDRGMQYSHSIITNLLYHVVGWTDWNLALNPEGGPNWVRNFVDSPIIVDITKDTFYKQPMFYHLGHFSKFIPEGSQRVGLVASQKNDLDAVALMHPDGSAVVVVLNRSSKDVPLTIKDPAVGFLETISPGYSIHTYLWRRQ

[5] = cytotoxicity toward DRD oncogenic fibroblasts, dose response, cell-based, non-viral oncogenic, luminescence (AID 1934); format: functional; settings: Homo sapiens
BJ [6] = assay: cytotoxicity toward BJ-TERT fibroblasts, dose response, cell-based, RAS-independent, luminescence (AID 1933); format: functional; settings: Homo sapiens
[7] = cytotoxicity in MIN6 insulinoma cells, dose response, cytotoxicity control, cell-based, mouse insulinoma (AID 2122); format: functional;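 note: confirmatory high-throughput counterscreen run to flag cytotoxic compounds; mouse MIN-6 beta cells carrying an insulin promoter eGFP reporter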
BJ [8] = assay: cytotoxicity toward BJ-TERT-LT-ST fibroblasts, dose response, cell-based, RAS-independent, luminescence (AID 1935); format: functional; settings: Homo sapiens;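 note: BJ fibroblasts immortalized with TERT plus LT and ST oncogenes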
[9] = insulin promoter down-regulators in MIN6 cells, imaging, high-content screening, mouse beta cells (AID 1628); format: functional
BJ [10] = assay: cells; format: functional, cell-based; settings: Homo sapiens
fMet-Leu-Phe receptor = target: T7, fMet-Leu-Phe receptor (Homo sapiens, UniProt P21462); assay: FPR ligands, dose response (AID 519); format: functional
T7 sequence (P21462 whole entry): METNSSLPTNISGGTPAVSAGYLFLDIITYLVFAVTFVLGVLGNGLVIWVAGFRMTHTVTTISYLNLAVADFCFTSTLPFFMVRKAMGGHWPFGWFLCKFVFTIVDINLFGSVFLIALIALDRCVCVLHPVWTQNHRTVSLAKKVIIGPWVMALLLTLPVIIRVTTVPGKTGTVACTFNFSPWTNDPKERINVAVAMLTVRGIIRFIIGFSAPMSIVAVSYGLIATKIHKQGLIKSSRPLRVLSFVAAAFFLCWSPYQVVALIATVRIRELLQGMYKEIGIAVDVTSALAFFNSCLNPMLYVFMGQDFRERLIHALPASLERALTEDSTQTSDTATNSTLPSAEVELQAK

[11] = target: FAD-linked sulfhydryl oxidase ALR (Homo sapiens, UniProt P55789); assay: inhibitors of human ALR sulfhydryl oxidase, dose response, biochemical, H2O2 detection, luminescence, cherry-pick (AID 493248)
Sequence of FAD-linked sulfhydryl oxidase ALR (P55789 whole entry): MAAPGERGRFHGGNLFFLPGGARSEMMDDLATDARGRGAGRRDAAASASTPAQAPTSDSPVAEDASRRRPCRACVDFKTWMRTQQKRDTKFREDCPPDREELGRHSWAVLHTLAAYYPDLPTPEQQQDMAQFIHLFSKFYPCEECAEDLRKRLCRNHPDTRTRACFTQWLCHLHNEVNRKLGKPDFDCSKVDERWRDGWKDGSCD

Nonstructural protein 1 = Nonstructural protein 1 (Influenza A virus, UniProt Q194T2); format: functional, Influenza A virus (A/California/07/2009(H1N1))
Sequence of Nonstructural protein 1 (Q194T2 whole entry): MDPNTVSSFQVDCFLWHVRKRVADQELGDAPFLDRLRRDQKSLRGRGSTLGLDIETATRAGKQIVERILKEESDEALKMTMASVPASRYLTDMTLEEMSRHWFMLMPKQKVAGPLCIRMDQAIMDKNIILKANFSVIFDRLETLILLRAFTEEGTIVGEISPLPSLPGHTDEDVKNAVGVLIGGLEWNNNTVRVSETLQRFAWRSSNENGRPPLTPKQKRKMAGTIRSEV

[12] = Luminescence Cell-Based Dose Retest to Confirm Inhibitors of Cancer Stem Cells. [Related pubchem assays (depositor defined):AID2717, AID2721]; format: functional; settings: Homo sapiens
Hexokinase = target: T8, Hexokinase (Trypanosoma brucei, UniProt Q38C41); assay: Confirmation assay for inhibitors of Trypanosoma brucei hexokinase 1-Analogue-first series. [Related pubchem assays (depositor defined):AID1430, AID1632, AID2516, AID2560, AID2579, AID2600, AID449725, AID492951]; format: functional
T8 sequence (Q38C41 whole entry): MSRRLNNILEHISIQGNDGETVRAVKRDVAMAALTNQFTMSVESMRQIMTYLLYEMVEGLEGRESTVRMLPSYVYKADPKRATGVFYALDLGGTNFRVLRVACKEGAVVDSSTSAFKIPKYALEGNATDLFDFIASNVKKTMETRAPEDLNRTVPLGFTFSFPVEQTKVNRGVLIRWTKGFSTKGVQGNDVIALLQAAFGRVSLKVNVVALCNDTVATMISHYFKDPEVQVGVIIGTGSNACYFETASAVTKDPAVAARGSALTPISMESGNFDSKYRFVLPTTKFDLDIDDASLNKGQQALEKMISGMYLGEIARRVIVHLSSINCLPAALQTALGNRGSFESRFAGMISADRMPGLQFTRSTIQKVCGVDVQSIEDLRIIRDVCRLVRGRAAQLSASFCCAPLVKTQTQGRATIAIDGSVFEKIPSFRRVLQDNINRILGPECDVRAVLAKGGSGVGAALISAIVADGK

## Cc1cc(C)n2cc(CSc3nncn3C)nc2n1
CAAX prenyl protease 2
  AC50: 13.8 µM (active)
Trypsin
  AC50: 8.35 µM (active)

## O=c1c(-c2nnc(SCc3ccc(Cl)c(Cl)c3)o2)cccn1Cc1ccccc1
Cytochrome P450 2D6
  AC50: 28.2 µM (inconclusive)
CAAX prenyl protease 2
  AC50: 11 µM (active)
Cytochrome P450 2C9
  AC50: 15.8 µM (inconclusive)

## COC(=O)c1cc(-c2ccc(Br)cc2)n[nH]1
[1]
  IC50: > 100 µM (inactive)
Protein skinhead-1
  IC50: > 100 µM (inactive)
[2]
  IC50: > 100 µM (not active)

## CCOC(=O)c1cnc(SC)nc1Sc1ccc(Cl)cc1Cl
HeLa
  AC50: 261 µM (active)

## CCN(CC)CCOC(=O)c1ccc(N/C=C(/C#N)c2nc(-c3cccc(OC)c3)cs2)cc1
X-box-binding protein 1
  Absolute IC50 (XBP1): 10 µM

## Cc1c(NC(=O)c2cc3nc(-c4ccccc4)cc(C)n3n2)c(=O)n(-c2ccccc2)n1C
Bcl-2-like protein 10
  IC50: 81.2 µM (inactive)

## Cc1ccccc1N(C(=O)c1cccs1)c1nc2ccccc2s1
[3]
  IC50: 1.52 µM (active)

## COc1ccccc1N1CCN(c2ccc([N+](=O)[O-])cc2Cl)CC1
Troponin, cardiac muscle
  EC50: > 71.5 µM (inactive)

## O=C(CSc1nnc2c(n1)[nH]c1ccc(F)cc12)OCc1ccccc1
Cytochrome P450 3A4
  AC50: 8.91 µM (inconclusive)
[4]
  EC50: > 50 µM (not active)
Cytochrome P450 2C9
  AC50: 0.0708 µM (inconclusive)

## CCc1nc(C)cn1S(=O)(=O)c1cc([N+](=O)[O-])ccc1Cl
[3]
  IC50: 6.53 µM (active)
[5]
  EC50: 7.62 µM (inconclusive)
BJ [6]
  EC50: 8.45 µM (inconclusive)
[7]
  IC50: 2.53 µM (active)
BJ [8]
  EC50: 3.93 µM (active)
[9]
  IC50: 2.59 µM (active)
BJ [10]
  EC50: 4.81 µM (inconclusive)

## Cc1ccc(C)c(C(=O)C2=C(O)C(=O)N(CCCn3ccnc3)C2c2ccncc2)c1 (stereo not drawn)
fMet-Leu-Phe receptor
  Ki: > 66.7 µM (inactive)
[4]
  EC50: > 50 µM (not active)

## O=C(Nc1cccnc1)c1ccc(S(=O)(=O)N2CCCCCC2)cc1
Bcl-2-like protein 10
  IC50: > 100 µM (inactive)

## O=C1NC(=O)N(Cc2ccc(F)cc2)C(=O)/C1=C/NNc1ccccc1
[11]
  AC50: 0.438 µM (active)
Troponin, cardiac muscle
  EC50: > 71.5 µM (inactive)

## CC1=NN(c2ccc(C)cc2)C(=O)/C1=C\C=C\c1ccccc1
Nonstructural protein 1
  IC50: 21.1 µM (active)

## CNC(=O)NC(=O)C(C)OC(=O)c1oc2ccccc2c1CSc1ccc(Cl)cc1 (stereo not drawn)
[12]
  AC50: 12.3 µM (active)
X-box-binding protein 1
  Absolute IC50 (XBP1): 10 µM

## O=C(Nc1cc(Cl)ccc1C(=O)O)c1ccc(OC(F)(F)F)cc1
Hexokinase
  IC50: > 25 µM (inactive)

## O=c1c2c(Br)cccc2sn1-c1ccccc1
Hexokinase
  IC50: 1.93 µM (active)
